Measurements as given in PMC8911640, “Synthesis and Structure–Activity Relationship of Thioacetamide-Triazoles against Escherichia coli” (Molecules, 2022).
Converted amounts (≈) assume the structure as drawn. “And” between values parts separate entries of the source, which are not always exact repeats. Equal entries are not always repeated. Where two headings read alike, the source gives them in different places.

Key:
Plasma stability (human) = type: in vitro ADME; conditions: read-out: Plasma Stability (Human) t1/2 (converted)
Experimental: (§1) The in vitro ADME values (solubility, mouse plasma stability, human plasma stability, mouse metabolic stability, and human metabolic stability) were determined as previously reported.

[1] = Metabolic (microsomal) stability (human); type: in vitro ADME; conditions: microsomes; for half-life: read-out: Metabolic Stability (Human) t1/2 (converted)
Experimental: as §1

Plasma stability (mouse) = type: in vitro ADME; conditions: read-out: Plasma Stability (Mouse) t1/2 (converted)
Experimental: as §1

E. coli K12 MG1655 = experiment: MIC testing by CLSI broth microdilution in M9-based minimal media ATCC 2511, with or without methionine; type: cell-based, Escherichia coli; conditions: for MIC90: Escherichia coli
Experimental: To explore the SAR around the right hand aryl portion of the TAT series (Table 1), compounds were evaluated for their in vitro antibacterial activity against E. coli in the M9-based minimal media ATCC 2511. […]. An MIC shift between the two medias was used to indicate that antibacterial activity of the compounds remained on target, and this was happily seen with all of the most MIC active compounds generated in this study. Within the first series of compounds in Table 1, modifications to the phenyl ring are generally well tolerated. MICs remain within 2-fold of the initial hit 1 for the fluoro- and cyano- substituted compounds 1–8. […]. Incorporating the electron-donating group -OMe and sterically bulky iodine group in both ortho and para position, 17–20, maintained activity, whereas the introduction of the strong electron-withdrawing -CF3 group, 21 and 22, led to poorer MIC activity. […] The phenyl ring isosteres—thiazoles 25 and 26—both retained good MIC activity. Adding a methyl branch to the thioacetamide linker 28 and 29 led to a striking loss of activity. Replacement of the aryl group with the aliphatic groups cyclohexyl 31, cyclopentyl 32, tert-butyl groups 33 all reduced activity.
MICs were determined following CLSI broth microdilution susceptibility M100 guidelines. Compound solutions were prepared in DMSO and serially diluted 1:2 in 100 μL/well in 96 well round-bottom plates. E. coli K12 MG1655 was acquired from ATCC and strictly maintained in the M9-based media ATCC 2511. ATCC 2511 was also used for all further cultivation and MIC testing. Bacteria were grown from a single colony to a mid-log OD600 and frozen in 0.5 mL aliquots. These aliquots were used to directly inoculate the assay plates by diluting to an OD600 of 0.001 and plating 100 μL per well, allowing for ~10^5 CFU to be added to each well.

[2] = Metabolic (microsomal) stability (mouse); type: in vitro ADME; conditions: microsomes; for half-life: read-out: Metabolic Stability (Mouse) t1/2 (converted)
Experimental: as §1

Solubility = type: physicochemical; conditions: for solubility: pH 7.4, aqueous buffer
Experimental: as §1

[3] = Pharmacokinetic evaluation in mice, single intravenous dose; type: in vivo; conditions: 10 mg/kg, plasma
Experimental: Pharmacokinetic parameters of 25 in plasma following a single intravenous dose of 10mg/kg administration to male Balb/c mice were done at SAI LifeSciences Ltd., Telangana, India (Table S2). Briefly, nine male mice were used in this study. All the animals were administered with 25 solution formulation in 5% NMP, 5% Solutol HS-15 and 90% Normal saline intravenously at 10 mg/kg dose. Blood samples (~60 μL) were collected from retro orbital plexus under light isoflurane anesthesia at following time points at Pre-dose, 0.08, 0.25, 0.5, 1, 2, 4, 8 and 24 h. Blood samples were collected from a set of three mice at each time point (sparse sampling) in labeled microcentrifuge tube containing 20% K2EDTA solution as anticoagulant. Plasma samples were separated by centrifugation of whole blood and stored below −70 ± 10 °C until bioanalysis. All samples were processed for analysis by protein precipitation using acetonitrile (ACN) and analyzed with fit-for-purpose LC/MS/MS method (LLOQ: 5.04 ng/mL). Pharmacokinetic parameters were calculated using the non-compartmental analysis tool of Phoenix WinNonlin (Version 7.0). All procedures of the study were in accordance with the guidelines provided by the Committee for the Purpose of Control and Supervision of Experiments on Animals (CPCSEA) as published in The Gazette of India, 15 December 1998. Prior approval of the Institutional Animal Ethics Committee (IAEC) was obtained before initiation of the study.

E. coli K12 = experiment: Whole cell accumulation in E. coli K12 (LC-MS/MS); parameters: dose or concentration left out as unconfirmed; conditions: 10 min, 37 °C; average of three biological replicates
Experimental: Drug uptake in whole cell E. coli K12, was performed following a modified protocol adapted from previously published studies [17, 25, 26, 27]. […] After incubation, 800 mL of antibiotic-exposed cells were spun (3 min, 13,000× g) through 700 mL of a 9:1 mix of AR20 and high temperature silicon oils (cooled to −80°C). The supernatant of silicone oil and free compound in PBS was carefully removed from pellet. Intracellular concentration of antibiotics within the bacterial cells was then determined.
For lysis, cells were resuspended in 200 mL of water and lysed by three freeze-thaw cycles of 3 min each in liquid nitrogen and in a 60 °C water bath. Lysed cells were pelleted and 150 mL of aqueous extract was transferred to a clean 1.5 mL microcentrifuge tube. Cell debris was resuspended in the remaining 50 mL of water and then extracted with 100 mL of methanol. Cells were again centrifuged, 100 mL of the methanol extract were removed and combined with the water supernatant. The extracts were allowed to rest at room temperature for 1 h before being centrifuged for 10 min at 20,000× g. Finally, extracts were filtered through a 0.22mm spin column to remove any remaining cellular debris.
Samples were analyzed with a Waters Acquity M Class series UPLC system and Xevo G2 QTOF tandem MS/MS with Zspray. Using a Phenomenex Kinetex 2.6 μm XB-C18, 100 Å (300 μm × 150 mm) column with solvent A, 0.1% formic acid in water, and solvent B, 0.1% formic acid in acetonitrile, 250 nL of extract were separated. […] High-resolution spectra were calibrated by co-infusion of 2 ng/mL leucine enkephalin lockspray (Waters). Data were quantified using Waters MassLynx software where the AUC was determined by integrating the daughter peak of the parent ion. Concentrations of the unknown compounds were determined by the linear fit of the standard curve. Concentrations were normalized to the culture density, determined via titers, to 10^10 CFU and are reported as the average of three biological replicates.

[4] = MG1655, read-out: E. coli K12 MIC90
[5] = No Supplement (N.S.), ATCC 2511 media, 16 h, 37 °C, read-out: E. coli K12 MIC90
[6] = No Supplement (N.S.), ATCC 2511 media, 16 h, 37 °C
[7] = pH 7.4 (Table S1), read-out: Solubility Avg. Sol
[8] = pH = 7.4, average of triplicate ± standard deviation, read-out: Avg. Sol
[9] = pH = 7.4, average of triplicate ± standard deviation

Row | SMILES | half-life (Plasma stability (human)) | CLint scaled [1] | half-life [1] | half-life (Plasma stability (mouse)) | MIC90 (E. coli K12 MG1655; [4]) | MIC90 (E. coli K12 MG1655; [5]) | E. coli K12 MIC90 (E. coli K12 MG1655; [6]) | CLint scaled [2] | half-life [2] | %Soluble (Solubility; pH 7.4 (Table S1)) | solubility (Solubility; [7]) | solubility (Solubility; [8]) | also measured
1 | O=C(CSc1cnn[nH]1)Nc1ccccn1 [Compound 9] | 19.9 ± 1.9 h | 7.7 mL/min/kg | 2.7 ± 0.2 h | 2.7 ± 0.2 h | 12.5 µg/mL (≈ 53.1 µM) | 1.6 µg/mL (≈ 6.8 µM) | ≤ 3.1 µg/mL | 80.4 mL/min/kg | 0.71 ± 0.02 h | 87.4% | 20.6 µg/mL and 87.4 µM | 20 ± 0.3 µg/mL (≈ 85 µM) | –
2 | N#Cc1ccccc1NC(=O)CSc1cnn[nH]1 [Compound 3] | 23 ± 1.1 h | 5.7 mL/min/kg | 3.7 ± 0.3 h | 1.1 ± 0.02 h | 12.5 µg/mL (≈ 48.2 µM) | 3.1 µg/mL (≈ 12 µM) | – | 50.5 mL/min/kg | 1.13 ± 0.05 h | 73.3% | 19 µg/mL and 73.3 µM | – | Avg. Sol (Solubility; [9]): 19 ± 1.5 µg/mL
3 | O=C(CSc1cnn[nH]1)Nc1ccc(F)cc1 [Compound 2] | 36.3 ± 5.5 h | 4.4 mL/min/kg | 4.7 ± 0.4 h | 2.5 ± 0.2 h | 12.5 µg/mL (≈ 49.5 µM) | 3.1 µg/mL (≈ 12.3 µM) | – | 87.4 mL/min/kg | 0.65 ± 0.03 h | 73.4% | 18.5 µg/mL and 73.4 µM | 18 ± 2.3 µg/mL (≈ 71.4 µM) | –
4 | O=C(CSc1cnn[nH]1)Nc1nccs1 [Compound 25] | 32.1 ± 5.4 h | 5.8 mL/min/kg | 3.6 ± 0.3 h | 13.3 ± 1.6 h | 12.5 µg/mL (≈ 51.8 µM) | 3.1 µg/mL (≈ 12.8 µM) | ≤ 3.1 µg/mL | 29.1 mL/min/kg | 2 ± 0.1 h | 87.3% | 21.1 µg/mL and 87.3 µM | – | AUCinf ([3]; male Balb/c mice): 2807 ng·h/mL; AUC(0-inf) ([3]; male, Balb/c, mouse, iv): 2810 ng·h/mL; AUC(0-t) ([3]; mouse, male Balb/c mice): 2800 ng·h/mL; C0 ([3]; mouse, male Balb/c mice): 7710 ng/mL; clearance ([3]; mouse, male Balb/c mice): 59.4 mL/min/kg; half-life ([3]; mouse, male Balb/c mice, read-out: T(1/2), elimination half-life (converted)): 0.55 h; Vd ([3]; mouse, male Balb/c mice, read-out: Vss): 1.16 L/kg; Avg. Sol (Solubility; [9]): 21 ± 1.8 µg/mL
5 | O=C(NCCSc1cnn[nH]1)c1ccccc1F [Compound 58] | – | – | – | – | – | 12.5 µg/mL (≈ 46.9 µM) | – | – | – | – | – | – | antibacterial activity against E. coli in words (E. coli K12 MG1655; E. coli K12): moderate activity; Whole Cell Accumulation in E. coli (E. coli K12): 7.0 ± 1 μM/10^10 CFU
6 | O=C(CSc1cnn[nH]1)Nc1ccccc1F [Compound 1] | 34.8 ± 0.3 h | 7 mL/min/kg | 3 ± 0.2 h | 0.39 ± 0.01 h | 12.5 µg/mL (≈ 49.5 µM) | 1.6 µg/mL (≈ 6.34 µM) | ≤ 3.1 µg/mL | 209 mL/min/kg | 0.27 ± 0.01 h | 65.2% | 16.4 µg/mL and 65.2 µM | 16 ± 0.8 µg/mL (≈ 63.4 µM) | –
7 | N[C@H]1CCN(c2ccc(NC(=O)CSc3cnn[nH]3)cc2)C1 [Compound 50] | – | – | – | – | – | > 200 µg/mL | – | – | – | – | – | – | Whole Cell Accumulation in E. coli (E. coli K12): 9.0 ± 2 μM/10^10 CFU
